Data taken from patent US6677431B2, “Design, preparation, and properties of antibacterial β-peptides” (The Trustees of the University of Pennsylvania, priority 1999, dated 2004).

Key:
micF-lux fusion = experiment: Stress-induced response assay, induction of micF-lux fusion; assay type: cell-based; conditions: for induction of micF-lux: Group II peptides; for micF gene fusion response: Table 4, regulatory gene Rob
Experimental: Stress-induced response and growth inhibition assays were carried out on samples of four of the β-peptide and compared to known polycationic peptides.
Polymyxin B was tested both rich, LB, medium and defined, M9, medium. The other natural peptides were tested in LB medium.
The β-peptides were tested in M9 medium. * In LB medium (data from Oh et al. Biochem. Biophys. Acta. 2000,1463: 43-54)
However, similar to the magainins, no induction of the micF-lux fusion was observed. Also, the minimum inhibitory concentrations (MIC's) were determined to be higher than those reported in the published manuscript.
Samples of these β-peptides 1 and 2 were evaluated in the stress-induced response assays.
(§1) The biolumenescence data result from test carried out according to U.S. Pat. No. 5,683,868, Highly Sensitive Method For Detecting Environmental Insults, issued Nov. 4, 1997 to LaRossa et al., the entire contents of the disclosure of are hereby incorporated by reference, The tests described in this patent permit antibacterial properties of peptides or any other materials to be assessed. […] Along these lines, FIG. 5 illustrates a relationship between relative light units and minutes of exposure of bacteria to the various materials in the legend. P×B represents polymyxin, a known antibacterial material. In the graph, a decrease in RULs corresponds to a decrease in bacteria. […]

recA-lux bioluminescence = experiment: Inhibition of recA-lux bioluminescence in M9 media; assay type: cell-based; conditions: inhibition of recA-lux bioluminescence in M9 media (Van Dyk lab)
Experimental: ∇in M9 medium (data from Hamuro et al., ref. 5) # In M9 medium.+Hemolysis experiments were performed by incubating a 0.25% suspension of human RBc's in 10 mM Tris buffer containing […] at pH 7.0 with varying amounts of peptide. The hemolytic dose required to lyse 50% of the RBC's is reported as the HD50.
as §1

[1] = Peptide binding to phospholipid bilayers by CD, SOPS/SOPC (1:9) vesicles; conditions: single site binding fit, 42 (peptide 1) or 52 (peptide 2) lipids per peptide
Experimental: The binding affinity of peptides to phospholipid bilayers was measured using CD spectra of the peptide in the presence of varying lipid vesicle concentrations. Peptides show little structure from CD spectra in water. Upon addition of lipid vesicles, the ellipiticity at 214 nm increased as a consequence of helix formation due to interactions between the peptide and lipid surface. Small unilamellar vesicles (SUV) of SOPC/SOPS were prepared by sonicating lipid large vesicles in 10 mM phosphate buffer, pH 7. CD spectra were taken before and after the addition of aliquots of vesicle to 2 mL peptide solution in 10 mM phosphate buffer, pH 7.
The dissociation constant Kd was determined from equation (1) for single site binding:
[P](R−1)−c/n−Kd+c/(nR)=0 (1)
where [P] and c are peptide and lipid molar concentrations, respectively, n is the number of lipids per peptide binding site. R is the fraction of peptide bound, which can be calculated from equation (2): […]
To get better understanding of the binding mechanism of the peptides to lipid membranes, the dissociation constants (Kd) of peptide 1 and peptide 2 to small unilamellar lipid vesicles (SUV) were measured. Since binding to DPC micelle drives peptide 1 and peptide 2 from random coil conformation to helical conformation, the binding equilibrium can be monitored by CD spectroscopy. […]

[2] = Peptide-induced leakage of liposomal contents (calcein release)
Experimental: The leakage of liposome contents to the external media was monitored by the release of calcein encapsulated in vesicles. The vesicle was prepared by reverse-phase evaporation in 10 mM sodium phosphate buffer, pH 7, followed by single extrusion through one 0.2 μm pore size polycarbonate filter. The non trapped calcein was removed by eluting through a size exclusion Sephadex G-25 column, with 90 mM sodium chloride, 10 mM sodium phosphate, pH 7. The leaking kinetics was monitored by follow the increase of calcein fluorescence intensity at 520 nm (excitation at 490 nm) due to release of self-quenching. The experiment was carried out on a Hitachi F-2500 Fluoresence spectrophotometer, with a slit width of […]. The initial rate was calculated from the linear part of the %leakage vs. time curve.
The mechanism of how the antibacterial peptides work is still on debate. However, it is generally believed they kill the cell by disturbing cell membranes. The experiment of peptide-induced leakage of liposomal contents is a direct way to monitor this process. Large unilammilar vesicles (LUV) of SOPS/SOPC (1:9) were used in the binding study. The leakage of encapsulated calcein was detected by its fluorescence at 515 nm. The fraction of bound lipid at different peptide concentration was calculated and overlaid in FIG. 4 as well. The lysis abilities of the two peptides are similar at low peptide concentration, and become quite different with increasing amount of peptide. […] With increase of peptide concentration, the leakage percentage increases quickly. For peptide 2, the leakage percentage jumps to 100% within the range between 0.05 μM and 0.14 μM where the corresponding fractions of lipid bound are about 10% 40%, respectively. […] The percentage of leakage increases to about 80% when the peptide concentration reaches 0.5 μM. The lysis ability stays at a plateau until the peptide concentration is pushed up to 2 μM, when about 60% of lipid molecules are bound to peptide molecules. […] The difference between the two peptides is even more obvious when looking at the leakage rate right after the addition of peptide to the vesicle solution, as shown in FIG. 3. The initial leakage rate for peptide 2 increases sharply when the peptide concentration increases from 0.14 μM to 0.19 μM. […] For peptide 1, the leakage initial rate increases in a continuous fashion, and 100% leakage is not complete until 300 s with 5.18 μM peptide.

## CC(C)[C@@H](CC(N)=O)NC(=O)C[C@H](CCCCN)NC(=O)C[C@H](C)NC(=O)C[C@@H](NC(=O)C[C@H](CCCCN)NC(=O)C[C@H](C)NC(=O)C[C@@H](NC(=O)C[C@H](CCCCN)NC(=O)C[C@H](C)NC(=O)C[C@@H](NC(=O)C[C@H](CCCCN)NC(=O)C[C@H](C)N)C(C)C)C(C)C)C(C)C [Peptide 1]
micF-lux fusion
  induction of micF-lux: induction
  micF gene fusion response: yes
recA-lux bioluminescence
  IC50: 10 µM
[1]
  Kd: 1400 nM
[2]; 5.18 μM peptide
  time to 100% leakage: 300 s
[2]; at 285 seconds, 5 μM peptide
  lysis of the vesicle: Complete lysis
[2]; at 285 seconds, peptide 0.5 μM
  percentage of leakage: about 80%

## CC(C)[C@@H](CC(N)=O)NC(=O)C[C@H](CCCCN)NC(=O)C[C@H](C)NC(=O)C[C@@H](NC(=O)C[C@H](CCCCN)NC(=O)C[C@H](C)NC(=O)C[C@@H](NC(=O)C[C@H](CCCCN)NC(=O)C[C@H](C)NC(=O)C[C@@H](NC(=O)C[C@H](CCCCN)NC(=O)C[C@H](C)NC(=O)C[C@@H](NC(=O)C[C@H](CCCCN)NC(=O)C[C@H](C)N)C(C)C)C(C)C)C(C)C)C(C)C [Peptide 2]
micF-lux fusion
  induction of micF-lux: induction
  micF gene fusion response: yes
recA-lux bioluminescence
  IC50: 3 µM
[1]
  Kd: 300 nM
[2]; at 285 seconds, peptide between 0.05 μM and 0.14 μM
  percentage of leakage: 100%
[2]; peptide concentration higher than 0.5 μM
  time to complete lysis of the vesicle: ≤ 20 s
